Usually melting point stands for the temperature of the solid-liquid transition.

Bounds are passed on as bounds.

We go through 72 compounds from patent publication US7262212B2, “2,3-dihydro-6-nitroimidazo[2,1-b]oxazoles” (Otsuka Pharmaceutical Co., Ltd., priority 2002, dated 2007).

Compound `O=C(Nc1ccc(OC(F)(F)F)cc1)N1CCC2(CC1)Cn1cc([N+](=O)[O-])nc1O2` showed a melting point of 231 to 233 °C.

Turning to `C[C@]1(CN2CCN(C(=O)Nc3ccc(C(F)(F)F)cc3)CC2)Cn2cc([N+](=O)[O-])nc2O1`, the melting point was 150 to 152.5 °C.

With `CSc1ccc(COC(=O)N2CCN(CC3(C)Cn4cc([N+](=O)[O-])nc4O3)CC2)cc1` (stereo not drawn), the melting point lay within 118 to 120 °C.

Compound `C[C@]1(CN2CCC3(CC2)OCCO3)Cn2cc([N+](=O)[O-])nc2O1` displayed a melting point of 166.5 to 168.2 °C.

`Cc1ccc(C(=O)N2CCN(CC3(C)Cn4cc([N+](=O)[O-])nc4O3)CC2)cc1` (stereo not drawn): the melting point fell in the range of 121 to 122 °C.

Take `CCN(CC)C(=O)OC[C@@]1(C)Cn2cc([N+](=O)[O-])nc2O1`: the melting point was 196 to 197 °C.

For the compound `O=C(Oc1ccccc1)N1CCC2(CC1)Cn1cc([N+](=O)[O-])nc1O2`, the melting point was 242 to 244 °C.

Compound `CC1(CN2CCN(Cc3ccccc3)C2=O)Cn2cc([N+](=O)[O-])nc2O1` (stereo not drawn) returned a melting point of 180.2 to 180.9 °C.

With `CC1(CN2CCC(Cc3ccc(C(F)(F)F)cc3)CC2)Cn2cc([N+](=O)[O-])nc2O1` (stereo not drawn), the melting point fell in the range of 125 to 126 °C.

The compound `CC(=O)c1ccc(COC(=O)N2CCN(CC3(C)Cn4cc([N+](=O)[O-])nc4O3)CC2)cc1` (stereo not drawn) had a melting point of 101 to 102 °C.

Turning to `CC(C)(C)OC(=O)CNC(=O)OCC1(C)Cn2cc([N+](=O)[O-])nc2O1` (stereo not drawn), the melting point was 104 to 106 °C.

Take `C[C@]1(CN2CCN(C(=O)NCc3ccc(C(F)(F)F)cc3)CC2)Cn2cc([N+](=O)[O-])nc2O1`: the melting point lay in the range of 101 to 103.6 °C.

`Cc1ccc(NC(=O)N2CCC3(CC2)Cn2cc([N+](=O)[O-])nc2O3)cc1`: the melting point was greater than 300 °C.

Take `C[C@]1(COc2nc3ccccc3o2)Cn2cc([N+](=O)[O-])nc2O1`: the melting point was in the range of 232 to 233 °C.

Compound `CN(Cc1cccc(Cl)c1)C[C@@]1(C)Cn2cc([N+](=O)[O-])nc2O1` yielded a melting point of 177.5 to 178.5 °C.

`CC1(CCc2nnnn2-c2ccc(Cl)cc2)Cn2cc([N+](=O)[O-])nc2O1` (stereo not drawn) registered a melting point of 198 to 200 °C.

Regarding `CNC(C1CCN(C(=O)OC(C)(C)C)CC1)[C@]1(C)Cn2cc([N+](=O)[O-])nc2O1` (stereo partly drawn), the melting point lay in the range of 138.5 to 140.3 °C.

Compound `C[C@]1(COC(=O)N(c2ccc(Cl)cc2)c2ccc(Cl)cc2)Cn2cc([N+](=O)[O-])nc2O1` showed a melting point of 200 to 201 °C.

Take `O=[N+]([O-])c1cn2c(n1)OC1(CCN(c3ccc(C(F)(F)F)cc3)CC1)C2`: the melting point was 249.2 to 250.1 °C.

For the compound `C[C@]1(CN2CCN(C3CCN(Cc4ccc(OC(F)(F)F)cc4)CC3)CC2)Cn2cc([N+](=O)[O-])nc2O1`, the melting point was in the range of 140 to 141 °C.

For the compound `CC1(CN2CCN(S(=O)(=O)CCc3ccc(Cl)cc3)CC2)Cn2cc([N+](=O)[O-])nc2O1` (stereo not drawn), the melting point lay within 182 to 184 °C.

Take `CC1(CN2CCN(c3ccc(Cl)cc3)CC2)Cn2cc([N+](=O)[O-])nc2O1` (stereo not drawn): the melting point lay in the range of 196.6 to 197.3 °C.

As to `C[C@]1(CN2CCC(NCc3ccc(C(F)(F)F)cc3)CC2)Cn2cc([N+](=O)[O-])nc2O1`, the melting point lay in the range of 148.6 to 152.9 °C.

`CC1(CN2CCN(C(=O)c3ccc(Cl)cc3)CC2)Cn2cc([N+](=O)[O-])nc2O1` (stereo not drawn) yielded a melting point of 150 to 155.2 °C.

For `CN(Cc1ccc(Cl)cc1)C[C@@]1(C)Cn2cc([N+](=O)[O-])nc2O1`, the melting point is 129 to 129.5 °C.

Turning to `CC1(CN2CCN(C(=O)OCc3ccc(C(=O)c4ccccc4)cc3)CC2)Cn2cc([N+](=O)[O-])nc2O1` (stereo not drawn), the melting point was 105 to 107 °C.

For `CC(C)(C)OC(=O)N1CCN(CC2Cn3cc([N+](=O)[O-])nc3O2)CC1` (stereo not drawn), the melting point was 185 to 188 °C (dec.).

Take `CC1(COc2nc3ccccc3o2)Cn2cc([N+](=O)[O-])nc2O1` (stereo not drawn): the melting point lay within 200 to 203 °C.

The compound `CCOC(=O)NCC1(C)Cn2cc([N+](=O)[O-])nc2O1` (stereo not drawn) returned a melting point of 182.5 to 183.4 °C.

On to `Cn1c(=O)n(CC2(C)Cn3cc([N+](=O)[O-])nc3O2)c2ccccc21` (stereo not drawn), for which the melting point fell in the range of 203.2 to 204.4 °C.

Regarding `CC1(CN2CCN(C(=O)c3ccc(C(F)(F)F)cc3)CC2)Cn2cc([N+](=O)[O-])nc2O1` (stereo not drawn), the melting point is 161 to 162 °C.

The compound `C[C@]1(CN2CCC(NC(=O)OCc3ccc(C(F)(F)F)cc3)CC2)Cn2cc([N+](=O)[O-])nc2O1` displayed a melting point of 141.2 to 144 °C.

Compound `CC1(CCc2nnnn2-c2ccccc2)Cn2cc([N+](=O)[O-])nc2O1` (stereo not drawn) showed a melting point of 158 to 159 °C.

With `C[C@]1(COc2ccc(C3CCN(C(=O)OCc4ccc(OC(F)(F)F)cc4)CC3)cc2)Cn2cc([N+](=O)[O-])nc2O1`, the melting point lay within 202.5 to 204 °C.

Turning to `C[C@]1(COC(=O)N(c2ccc(Cl)cc2)C2CCCCC2)Cn2cc([N+](=O)[O-])nc2O1`, the melting point lay within 175 to 177 °C.

The compound `CN(Cc1ccc(OC(F)(F)F)cc1)C(=O)OC[C@@]1(C)Cn2cc([N+](=O)[O-])nc2O1` had a melting point of 123 to 124 °C.

In the case of `CC1(Cn2nc(-c3ccc(Cl)cc3)oc2=O)Cn2cc([N+](=O)[O-])nc2O1` (stereo not drawn), the melting point was in the range of 221 to 222 °C.

In turn, `C[C@]1(CN2CCN(c3ccc(Cl)cc3)CC2)Cn2cc([N+](=O)[O-])nc2O1` registered a melting point of 218 to 219.6 °C.

With `CC(C)(C)OC(=O)N1CCN(C(=O)N2CCC3(CC2)Cn2cc([N+](=O)[O-])nc2O3)CC1`, the melting point was 260 to 265 °C (dec.).

In turn, `CCOC(=O)c1ccccc1NCC1(C)Cn2cc([N+](=O)[O-])nc2O1` (stereo not drawn) yielded a melting point of 162.5 to 163.2 °C.

With `COc1ccc(NC(=O)N2CCN(C[C@@]3(C)Cn4cc([N+](=O)[O-])nc4O3)CC2)cc1`, the melting point lay in the range of 185.5 to 187.5 °C.

Compound `O=[N+]([O-])c1cn2c(n1)O[C@@H](CN1CCN(c3ccc(F)cc3)CC1)C2` returned a melting point of 178.5 to 179.5 °C.

As for `CC1(CN2CCCN(Cc3ccc(-c4ccccc4)cc3)CC2)Cn2cc([N+](=O)[O-])nc2O1` (stereo not drawn), the melting point fell in the range of 138 to 142.2 °C.

In turn, `CN(CCOc1ccc(Cl)cc1)C[C@@]1(C)Cn2cc([N+](=O)[O-])nc2O1` came in with a melting point of 130.5 to 132 °C.

In the case of `CN1CCC2(CC1)Cn1cc([N+](=O)[O-])nc1O2`, the melting point was 237 to 239 °C (dec.).

`C[C@]1(COc2ccc(-n3ccnc3)cc2)Cn2cc([N+](=O)[O-])nc2O1` registered a melting point of 172 to 175 °C.

In the case of `CCOC(=O)N1CCN(c2ccc(OC[C@@]3(C)Cn4cc([N+](=O)[O-])nc4O3)cc2)CC1`, the melting point is 210.5 to 212 °C.

Compound `CC1(CCCN2CCN(C(=O)OCc3ccc(C(F)(F)F)cc3)CC2)Cn2cc([N+](=O)[O-])nc2O1` (stereo not drawn) returned a melting point of 130 to 133 °C.

`CC(C)(C)OC(=O)NC1CCN(C[C@@]2(C)Cn3cc([N+](=O)[O-])nc3O2)CC1` had a melting point of 158.5 to 160.7 °C.

`C[C@]1(COc2ccc(OC(F)(F)F)cc2)Cn2cc([N+](=O)[O-])nc2O1` showed a melting point of 176.5 to 178 °C.

As to `C[C@]1(CN2CCN(S(=O)(=O)c3ccc(Cl)cc3)CC2)Cn2cc([N+](=O)[O-])nc2O1`, the melting point fell in the range of 216 to 218 °C.

Take `CC(C)(C)OC(=O)N1CCN(C2CCN(C[C@@]3(C)Cn4cc([N+](=O)[O-])nc4O3)CC2)CC1`: the melting point was 184 to 185 °C.

As for `CC1(CN2CCN(C(=O)Nc3ccc(Cl)cc3)CC2)Cn2cc([N+](=O)[O-])nc2O1` (stereo not drawn), the melting point is 185 to 188 °C (dec.).

Compound `C[C@]1(COc2ccc(C3=CCN(C(=O)OCc4ccc(OC(F)(F)F)cc4)CC3)cc2)Cn2cc([N+](=O)[O-])nc2O1` showed a melting point of 174.3 to 174.8 °C.

`C[C@]1(CN2CCN(C(=O)N3CCC(c4ccc(C(F)(F)F)cc4)CC3)CC2)Cn2cc([N+](=O)[O-])nc2O1` displayed a melting point of 179.1 to 181.9 °C.

For `O=C(N1CCN(Cc2ccc(C(F)(F)F)cc2)CC1)N1CCC2(CC1)Cn1cc([N+](=O)[O-])nc1O2`, the melting point was 226 to 230 °C (dec.).

On to `CC(C)(C)OC(=O)N1CCN(c2ccc(OC[C@@]3(C)Cn4cc([N+](=O)[O-])nc4O3)cc2Cl)CC1`, for which the melting point fell in the range of 207 to 209.5 °C.

With `C[C@]1(CN2CCN(C(=O)CSc3ccc(Cl)cc3)CC2)Cn2cc([N+](=O)[O-])nc2O1`, the melting point lay in the range of 142 to 145 °C.

Turning to `O=[N+]([O-])c1cn2c(n1)OC(COc1ccc(N3CCC(Oc4ccc(OC(F)(F)F)cc4)CC3)cc1)C2` (stereo not drawn), the melting point is 173.2 to 177.3 °C.

Turning to `C[C@]1(CN2CCN(C(=O)OCC=Cc3c(F)cc(F)cc3F)CC2)Cn2cc([N+](=O)[O-])nc2O1.O=C(O)/C=C\C(=O)O`, the melting point lay in the range of 158 to 159 °C.

In turn, `CN(CCN1CCN(C(=O)OC(C)(C)C)CC1)C[C@@]1(C)Cn2cc([N+](=O)[O-])nc2O1` came in with a melting point of 149.5 to 151.8 °C.

Compound `CC1(CN2CCC(C(=O)c3ccc(Cl)cc3)CC2)Cn2cc([N+](=O)[O-])nc2O1` (stereo not drawn) came in with a melting point of 165 to 167 °C.

Consider `O=c1oc(-c2ccc(OC(F)(F)F)cc2)nn1CC1Cn2cc([N+](=O)[O-])nc2O1` (stereo not drawn), for which the melting point fell in the range of 204 to 207 °C.

For the compound `CC1(Cn2nc(COc3ccc(Cl)cc3)oc2=O)Cn2cc([N+](=O)[O-])nc2O1` (stereo not drawn), the melting point is 64 to 66 °C.

Consider `C[C@]1(COc2ccc(-n3cncn3)cc2)Cn2cc([N+](=O)[O-])nc2O1`, for which the melting point is 236 to 238.7 °C.

The compound `CC1(CN2CCN(C(=O)N3CCC(c4ccc(Cl)cc4)CC3)CC2)Cn2cc([N+](=O)[O-])nc2O1` (stereo not drawn) returned a melting point of 186 to 187 °C.

As to `CC1(CN2CCN(C(=O)Nc3ccc(Cl)c(Cl)c3)CC2)Cn2cc([N+](=O)[O-])nc2O1` (stereo not drawn), the melting point was 212 to 214 °C (dec.).

`CC(C)(C)OC(=O)N1CCC(n2c(=O)n(CC3(C)Cn4cc([N+](=O)[O-])nc4O3)c3ccccc32)CC1` (stereo not drawn) had a melting point of 218 to 219.1 °C.

As for `CC1(CN2CCN(S(=O)(=O)c3ccc(Cl)cc3)CC2)Cn2cc([N+](=O)[O-])nc2O1` (stereo not drawn), the melting point lay in the range of 202 to 204 °C.

Consider `CNC(C1CCN(C(=O)OCc2ccc(OC(F)(F)F)cc2)CC1)[C@]1(C)Cn2cc([N+](=O)[O-])nc2O1` (stereo partly drawn), for which the melting point lay within 84.2 to 86.8 °C.

Turning to `CNCC1(C)Cn2cc([N+](=O)[O-])nc2O1.O=C(O)C(F)(F)F` (stereo not drawn), the melting point fell in the range of 176.2 to 178.8 °C.

As for `C[C@]1(CN2CCN(Cc3ccc(-c4ccccc4)cc3)CC2)Cn2cc([N+](=O)[O-])nc2O1`, the melting point lay within 182 to 184 °C.
